Test results: ChEMBL document CHEMBL1155773, “Effects of imipenem-cilastatin, ertapenem, piperacillin-tazobactam, and ceftriaxone treatments on persistence of intestinal colonization by extended-spectrum-beta-lactamase-producing Klebsiella pneumoniae strains in mice” (2007)
In brackets after ≈: the same amount, converted by molar mass. Activity calls are given as the source filed them. No cut-off for these calls is given here.

How the values were obtained:
Klebsiella pneumoniae [1] = assay: Antibacterial activity against extended-spectrum-beta-lactamase-producing Klebsiella pneumoniae P62 by broth dilution method; type: functional
Klebsiella pneumoniae [2] = assay: Antibacterial activity against extended-spectrum-beta-lactamase-producing Klebsiella pneumoniae P10045 infected in sc dosed CF1 mouse with high-density bacterial colonization administered daily for 9 days assessed as suppression of stool bacterial count; type: functional, organism-based
Klebsiella pneumoniae [3] = assay: Antibacterial activity against extended-spectrum-beta-lactamase-producing Klebsiella pneumoniae P10045 by broth dilution method; type: functional
Klebsiella pneumoniae [4] = assay: Antibacterial activity against extended-spectrum-beta-lactamase-producing Klebsiella pneumoniae isolate; type: functional
Klebsiella pneumoniae [5] = assay: Antibacterial activity against extended-spectrum-beta-lactamase-producing Klebsiella pneumoniae P62 infected in sc dosed CF1 mouse with high-density bacterial colonization administered daily for 9 days assessed as suppression of stool bacterial count; type: functional, organism-based
Klebsiella pneumoniae [6] = assay: Effect on extended-spectrum-beta-lactamase-producing Klebsiella pneumoniae P10045 infected in sc dosed CF1 mouse with high-density bacterial colonization administered daily for 9 days assessed as promotion of persistent bacterial overgrowth by measuring stool bacterial count; type: functional, organism-based
Klebsiella pneumoniae [7] = assay: Effect on extended-spectrum-beta-lactamase-producing Klebsiella pneumoniae P62 infected in sc dosed CF1 mouse with high-density bacterial colonization administered daily for 9 days assessed as promotion of persistent bacterial overgrowth by measuring stool bacterial count; type: functional, organism-based

SMILES	MIC (Klebsiella pneumoniae [1])	Activity (Klebsiella pneumoniae [2])	MIC (Klebsiella pneumoniae [3])	MIC (Klebsiella pneumoniae [4])	Activity (Klebsiella pneumoniae [5])	Activity (Klebsiella pneumoniae [6])	Activity (Klebsiella pneumoniae [7])
C[C@@H](O)[C@H]1C(=O)N2C(C(=O)O)=C(S[C@@H]3CN[C@H](C(=O)Nc4cccc(C(=O)O)c4)C3)[C@H](C)[C@H]12 [ERTAPENEM]	< 0.25 µg/mL	Active	0.25 µg/mL (≈ 0.526 µM)	< 0.25 µg/mL	Active		
CO/N=C(\C(=O)N[C@@H]1C(=O)N2C(C(=O)O)=C(CSc3nc(=O)c(O)nn3C)CS[C@H]12)c1csc(N)n1 [CEFTRIAXONE]	4 µg/mL (≈ 7.21 µM)		78 µg/mL (≈ 141 µM)	4 µg/mL (≈ 7.21 µM)		Active	Active
